Assay results: US12077503B2, “Substituted cyclic amides and their use as herbicides” (FMC CORPORATION, priority 2015, dated 2024)

Assays:
Format in all cases: in vivo
[1] = system: barnyardgrass (Echinochloa crus-galli); assay: Test A preemergence; details: Echinochloa crus-galli, pre-emergence, 240 h, 0 to 100 scale where 0 is no effect and 100 is complete control, read-out: Barnyardgrass plant response rating
Procedure, shortened: (§1)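 Each rating is a visual injury score from 0 to 100 given about 10 d after treatment, judged against untreated controls kept alongside in the greenhouse. In loam soil–sand blend, seeds got a preemergence directed soil spray, while postemergence plants were 2 to 10 cm tall at spraying.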

[2] = system: pigweed (Amaranthus retroflexus); assay: Test A preemergence; details: Amaranthus retroflexus, pre-emergence, 240 h, 0 to 100 scale where 0 is no effect and 100 is complete control, read-out: Pigweed plant response rating
[3] = system: ryegrass, Italian (Italian ryegrass, Lolium multiflorum); assay: Test A preemergence; details: Lolium multiflorum, pre-emergence, 240 h, 0 to 100 scale where 0 is no effect and 100 is complete control, read-out: Ryegrass, Italian plant response rating
Procedure, shortened: as §1

[4] = system: giant foxtail (Setaria faberii); assay: Test A preemergence; details: Setaria faberi, pre-emergence, 240 h, 0 to 100 scale where 0 is no effect and 100 is complete control, read-out: Foxtail, Giant plant response rating
Procedure, shortened: as §1

Kochia (Kochia scoparia) [5] = assay: Test A preemergence; details: Bassia scoparia, pre-emergence, 240 h, 0 to 100 scale where 0 is no effect and 100 is complete control, read-out: Kochia plant response rating
Procedure, shortened: as §1

[6] = system: ragweed (common ragweed, Ambrosia elatior); assay: Test A preemergence; details: Ambrosia artemisiifolia, pre-emergence, 240 h, 0 to 100 scale where 0 is no effect and 100 is complete control, read-out: Ragweed plant response rating
Procedure, shortened: as §1

[7] = system: barnyardgrass (Echinochloa crus-galli); assay: Test B flooded paddy test; details: Echinochloa crus-galli, 250 g ai/ha, Flood; 0 to 100 scale where 0 is no effect and 100 is complete control; read-out: Barnyardgrass plant response rating
Procedure, shortened: (§2)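 Visual ratings (0 none to 100 complete control) are relative to untreated plants, taken 13–15 d after treatment in a greenhouse. Test material went straight into floodwater standing 3 cm above the soil, kept constant, on plants at the 2-leaf stage.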

[8] = system: sedge, umbrella (small-flower umbrella sedge, Cyperus difformis); assay: Test B flooded paddy test; details: Cyperus difformis, 250 g ai/ha, Flood; 0 to 100 scale where 0 is no effect and 100 is complete control; read-out: Sedge, Umbrella plant response rating
Procedure, shortened: as §2

rice (Oryra sativa) = assay: Test B flooded paddy test; details: Oryza sativa, 250 g ai/ha, Flood; 0 to 100 scale where 0 is no effect and 100 is complete control; read-out: Rice plant response rating
Procedure, shortened: as §2

[9] = system: ducksalad (Heteranthera limosa); assay: Test B flooded paddy test; details: Heteranthera limosa, 250 g ai/ha, Flood; 0 to 100 scale where 0 is no effect and 100 is complete control; read-out: Ducksalad plant response rating
Procedure, shortened: as §2

[10] = system: barnyardgrass (Echinochloa crus-galli); assay: Test A postemergence; details: Echinochloa crus-galli, post-emergence, 240 h, read-out: Barnyardgrass plant response rating (0 to 100 scale)
Procedure, shortened: as §1

[11] = system: Galium (catchweed bedstraw, Galium aparine); assay: Test A postemergence; details: Galium, post-emergence, 240 h, read-out: Galium plant response rating (0 to 100 scale)
Procedure, shortened: as §1

[12] = system: blackgrass (Alopecurus myosuroides); assay: Test A postemergence; details: Alopecurus myosuroides, post-emergence, 240 h, read-out: Blackgrass plant response rating (0 to 100 scale)
Procedure, shortened: as §1

[13] = system: pigweed (Amaranthus retroflexus); assay: Test A postemergence; details: Amaranthus retroflexus, post-emergence, 240 h, read-out: Pigweed plant response rating (0 to 100 scale)
Procedure, shortened: as §1

[14] = system: ryegrass, Italian (Italian ryegrass, Lolium multiflorum); assay: Test A postemergence; details: Lolium multiflorum, post-emergence, 240 h, read-out: Ryegrass, Italian plant response rating (0 to 100 scale)
Procedure, shortened: as §1

corn (Zea mays) = assay: Test A postemergence; details: Zea mays, post-emergence, 240 h, read-out: Corn plant response rating (0 to 100 scale)
Procedure, shortened: as §1

[15] = system: giant foxtail (Setaria faberii); assay: Test A postemergence; details: Setaria faberi, post-emergence, 240 h, read-out: Foxtail, Giant plant response rating (0 to 100 scale)
Procedure, shortened: as §1

[16] = system: wheat (Triticum aestivum); assay: Test A postemergence; details: Triticum aestivum, post-emergence, 240 h, read-out: Wheat plant response rating (0 to 100 scale)
Procedure, shortened: as §1

Kochia (Kochia scoparia) [17] = assay: Test A postemergence; details: Bassia scoparia, post-emergence, 240 h, read-out: Kochia plant response rating (0 to 100 scale)
Procedure, shortened: as §1

[18] = system: ragweed (common ragweed, Ambrosia elatior); assay: Test A postemergence; details: Ambrosia artemisiifolia, post-emergence, 240 h, read-out: Ragweed plant response rating (0 to 100 scale)
Procedure, shortened: as §1

[19] = 125 g ai/ha, preemergence, visual injury rating, approximately 10 d
[20] = 125 g ai/ha, postemergence, visual injury vs untreated controls after approx. 10 d, 0 = no effect, 100 = complete control
[21] = Postemergence, 31 g ai/ha, 0 is no effect, 100 is complete control

SMILES: N#Cc1ccc([C@H]2CNC(=O)[C@@H]2C(=O)Nc2ccccc2F)cc1F [Compound 1191]
- pest or weed control at 31 g/ha ([1]; 31 g ai/ha, Preemergence): 0%
- pest or weed control at 125 g/ha [1, 19]: 0%
- pest or weed control at 31 g/ha ([2]; 31 g ai/ha, Preemergence): 0%
- pest or weed control at 125 g/ha [2, 19]: 0%
- pest or weed control at 31 g/ha ([3]; 31 g ai/ha, Preemergence): 0%
- pest or weed control at 125 g/ha [3, 19]: 0%
- pest or weed control at 31 g/ha ([4]; 31 g ai/ha, Preemergence): 0%
- pest or weed control at 125 g/ha [4, 19]: 0%
- pest or weed control at 31 g/ha (Kochia (Kochia scoparia) [5]; 31 g ai/ha, Preemergence): 0%
- pest or weed control at 125 g/ha (Kochia (Kochia scoparia) [5]; [19]): 0%
- pest or weed control at 31 g/ha ([6]; 31 g ai/ha, Preemergence): 0%
- pest or weed control at 125 g/ha [6, 19]: 0%
- pest or weed control at 250 g/ha [7]: 0%
- pest or weed control at 250 g/ha [8]: 0%
- pest or weed control at 250 g/ha (rice (Oryra sativa)): 10%
- pest or weed control at 250 g/ha [9]: 90%
- pest or weed control at 125 g/ha [10, 20]: 0%
- pest or weed control at 31 g/ha [10, 21]: 0%
- pest or weed control at 125 g/ha [11, 20]: 0%
- pest or weed control at 31 g/ha [11, 21]: 0%
- pest or weed control at 125 g/ha [12, 20]: 0%
- pest or weed control at 31 g/ha [12, 21]: 0%
- pest or weed control at 125 g/ha [13, 20]: 0%
- pest or weed control at 31 g/ha [13, 21]: 0%
- pest or weed control at 125 g/ha [14, 20]: 0%
- pest or weed control at 31 g/ha [14, 21]: 0%
- plant injury at 125 g/ha (corn (Zea mays); [20]): 0%
- plant injury at 31 g/ha (corn (Zea mays); [21]): 0%
- pest or weed control at 125 g/ha [15, 20]: 0%
- pest or weed control at 31 g/ha [15, 21]: 0%
- plant injury at 125 g/ha [16, 20]: 0%
- plant injury at 31 g/ha [16, 21]: 0%
- pest or weed control at 125 g/ha (Kochia (Kochia scoparia) [17]; [20]): 0%
- pest or weed control at 31 g/ha (Kochia (Kochia scoparia) [17]; [21]): 0%
- pest or weed control at 125 g/ha [18, 20]: 0%
- pest or weed control at 31 g/ha [18, 21]: 0%
